Assay results from ChEMBL document CHEMBL5316369, “From the Spectroscopic Reassessment of Authentic Alkaloid Samples to the Molecular Networking-Guided Discovery of Criophylline-Related Analogues from Callichilia inaequalis” (J Nat Prod, 2023).

System: Plasmodium falciparum
Assay: Antiparasitic activity against chloroquine-resistant Plasmodium falciparum FcB1 assessed as inhibition of parasite growth incubated for 24 hrs by liquid scintillation spectrometer analysis
Assay type: functional, organism-based
Details: FcB1, 24 h

CC[C@@]12CC[C@@]34Nc5ccc([C@@H]6[C@H]7O[C@H]7[C@]7(CC)CC(C(=O)OC)=C8Nc9ccccc9[C@@]89CCN6[C@@H]79)cc5[C@@H]3CCN(C[C@H](O)[C@H]1O)[C@@H]24
IC50: 2.9 µM

CC[C@@]12CC[C@@]34Nc5ccc([C@@H]6[C@H]7O[C@H]7[C@]7(CC)CC(C(=O)OC)=C8Nc9ccccc9[C@@]89CCN6[C@@H]79)cc5[C@@H]3CCN(C[C@H](OS(=O)(=O)O)[C@H]1O)[C@@H]24
IC50: 14.3 µM

CC[C@@]12CC[C@@]34Nc5ccc([C@@H]6[C@H]7O[C@H]7[C@]7(CC)CC(C(=O)OC)=C8Nc9ccccc9[C@@]89CCN6[C@@H]79)cc5[C@@H]3CCN(C[C@H]3O[C@H]31)[C@@H]24
IC50: 54.5 µM
